ChEMBL document CHEMBL5120806, “Synthesis and biological evaluation of glucagon-like peptide-1 analogs with the C-terminal helix 3 of albumin-binding domain 3” (Bioorg Med Chem, 2022)
pEC50, pKd: −log10 of the molar value. The source made the active and inactive calls. No cut-off for these calls is given here. Where a SMILES comes first, the peptide text is derived from it. [ ]: non-standard residue; d: D form. Aun = NCCCCCCCCCCC(=O)O; AEEA = NCCOCCOCC(=O)O; Aib = CC(C)(N)C(=O)O; Aoc = NCCCCCCCC(=O)O

Assays:
[1] = molecular target: T1, Glucagon-like peptide 1 receptor (Homo sapiens, UniProt P43220); assay: Binding affinity to GLP-1 receptor (unknown origin) assessed as binding rate constant by surface plasmon resonance analysis; details: filed as activator
T1 sequence (P43220 whole entry): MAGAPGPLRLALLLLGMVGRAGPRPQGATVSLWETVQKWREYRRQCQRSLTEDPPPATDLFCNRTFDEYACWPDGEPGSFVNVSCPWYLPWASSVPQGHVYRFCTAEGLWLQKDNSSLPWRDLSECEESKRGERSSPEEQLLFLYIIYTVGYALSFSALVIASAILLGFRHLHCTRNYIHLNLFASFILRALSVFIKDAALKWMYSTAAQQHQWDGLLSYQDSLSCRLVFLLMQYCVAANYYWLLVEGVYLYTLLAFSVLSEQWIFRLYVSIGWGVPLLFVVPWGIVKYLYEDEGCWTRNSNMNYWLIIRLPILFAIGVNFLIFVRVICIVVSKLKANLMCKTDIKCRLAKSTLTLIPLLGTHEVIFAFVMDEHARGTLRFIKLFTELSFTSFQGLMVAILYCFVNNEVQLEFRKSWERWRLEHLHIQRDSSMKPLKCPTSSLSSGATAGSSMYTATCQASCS

Mus musculus [2] = assay: Antidiabetic activity in mouse assessed as decrease in blood glucose level at 30 nmol/kg, sc measured after 24 hrs; assay type: functional, organism-based
[3] = molecular target: T1, Glucagon-like peptide 1 receptor; assay: Binding affinity to GLP-1 receptor (unknown origin) assessed as dissociation rate constant by surface plasmon resonance analysis; details: filed as activator
[4] = molecular target: T1, Glucagon-like peptide 1 receptor; assay: Binding affinity to GLP-1 receptor (unknown origin) assessed as equlibrium constant by surface plasmon resonance analysis
[5] = molecular target: T1, Glucagon-like peptide 1 receptor; assay: Activation of GLP-1 receptor (unknown origin) expressed in CHO-K1 cells assessed as increase in cAMP accumulation by time-resolved fluorescence resonance energy transfer immunoassay; assay type: functional, cell-based
Albumin = Albumin (Homo sapiens, UniProt P02768); assay: Binding affinity to albumin (unknown origin) by HPLC analysis
Albumin, sequence (P02768 whole entry): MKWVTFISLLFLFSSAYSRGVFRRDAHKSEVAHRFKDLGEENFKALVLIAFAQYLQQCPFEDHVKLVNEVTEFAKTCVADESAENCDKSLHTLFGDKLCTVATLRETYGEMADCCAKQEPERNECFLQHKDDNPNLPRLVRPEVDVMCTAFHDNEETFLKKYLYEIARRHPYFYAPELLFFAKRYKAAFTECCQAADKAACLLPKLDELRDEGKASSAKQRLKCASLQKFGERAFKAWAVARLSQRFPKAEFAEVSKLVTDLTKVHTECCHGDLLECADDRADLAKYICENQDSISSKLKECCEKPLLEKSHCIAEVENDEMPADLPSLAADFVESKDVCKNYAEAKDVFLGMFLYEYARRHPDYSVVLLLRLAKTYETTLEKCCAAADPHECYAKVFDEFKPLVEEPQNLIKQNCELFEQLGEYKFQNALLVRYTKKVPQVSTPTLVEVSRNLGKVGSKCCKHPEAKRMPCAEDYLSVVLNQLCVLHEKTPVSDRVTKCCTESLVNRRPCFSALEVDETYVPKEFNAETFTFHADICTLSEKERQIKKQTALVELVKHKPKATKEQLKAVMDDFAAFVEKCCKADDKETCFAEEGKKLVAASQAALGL

Mus musculus [6] = assay: Antidiabetic activity in mouse assessed as decrease in AUC (0 to 24hrs) glucose level at 30 nmol/kg, sc measured after 24 hrs; assay type: functional, organism-based
Mus musculus [7] = assay: Antidiabetic activity in mouse assessed as decrease in body weight at 30 nmol/kg, sc measured after 24 hrs; assay type: functional, organism-based
[8] = molecular target: T2, Glucagon-like peptide 1 receptor (Rattus norvegicus) (UniProt P32301); assay: Activation of GLP-1 receptor in rat INS-1 cells assessed as cAMP accumulation at 10 nmol/L time-resolved fluorescence resonance energy transfer immunoassay; assay type: functional, cell-based; details: INS1, filed as activator
T2 sequence (whole entry): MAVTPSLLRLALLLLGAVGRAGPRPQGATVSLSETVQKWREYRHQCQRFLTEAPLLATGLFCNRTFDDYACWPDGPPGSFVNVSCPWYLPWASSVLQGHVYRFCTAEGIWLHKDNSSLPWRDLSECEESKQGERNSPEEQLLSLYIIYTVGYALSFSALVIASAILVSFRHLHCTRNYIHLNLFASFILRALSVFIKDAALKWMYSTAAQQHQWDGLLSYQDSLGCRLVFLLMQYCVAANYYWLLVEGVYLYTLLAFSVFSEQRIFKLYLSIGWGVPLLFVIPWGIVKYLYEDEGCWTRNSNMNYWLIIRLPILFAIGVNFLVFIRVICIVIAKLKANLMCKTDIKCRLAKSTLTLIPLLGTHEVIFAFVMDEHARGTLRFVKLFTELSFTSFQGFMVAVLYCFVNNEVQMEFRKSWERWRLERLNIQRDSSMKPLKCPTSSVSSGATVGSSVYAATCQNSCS

In the case of “H-[Aib]EGTFTSDVSSYLEGQAAKEFIAWLVKG[AEEA]GVKALIDEILAA-NH2”, the Ka [1] was 1.95 10^4/Ms, the Activity (Mus musculus [2]) was “Active” and the Kdiss [3] was 1.94 10^-2/s. The pKd [4] was 6.00, the pEC50 [5] was 9.88 and the Activity (Albumin) was 75.4%.
SEMAGLUTIDE [listing 1 of 2 here] was tested, and the Ka [1] was 7.26 10^4/Ms, the Activity (Mus musculus [6]) was “Active” and the Activity (Mus musculus [2]) was “Active”. The Kdiss [3] was 3.2 10^-2/s.
In the case of “H-[Aib]EGTFTSDVSSYLEGQAAKEFIAWLVKG[AEEA][AEEA]GVKALIDEILAA-NH2”, the Ka [1] was 3.57 10^4/Ms, the Activity (Mus musculus [6]) was “Active” and the Activity (Mus musculus [2]) was “Active”. The Kdiss [3] was 3.25 10^-2/s, the pKd [4] was 6.04 and the pEC50 [5] was 9.77. For the same molecule, the Activity (Albumin) was 65.6%.
For “H-[Aib]EGTFTSDVSSYLEGQAAKEFIAWLVKG[Aoc][AEEA]GVKALIDEILAA-NH2”, the Ka [1] was 3.11 10^4/Ms, the Activity (Mus musculus [6]) was “Active” and the Activity (Mus musculus [2]) was “Active”. The Kdiss [3] was 1.65 10^-2/s, the pKd [4] was 6.27 and the pEC50 [5] was 9.87. It also gave an Activity (Albumin) of 66.5%.
“H-[Aib]EGTFTSDVSSYLEGQAAKEFIAWLVKG[Aoc]GVKALIDEILAA-NH2” was tested, and the Ka [1] was 2.01 10^4/Ms, the Activity (Mus musculus [6]) was “Active” and the Activity (Mus musculus [2]) was “Active”. The Kdiss [3] was 1.41 10^-2/s, the pKd [4] was 6.15 and the pEC50 [5] was 9.69. For the same molecule, the Activity (Albumin) was 77.4%.
For “H-[Aib]EGTFTSDVSSYLEGQAAKEFIAWLVKG[Aun][AEEA]GVKALIDEILAA-NH2”, the Activity (Mus musculus [7]) was “Active”, the Ka [1] was 1.32 10^4/Ms and the Activity (Mus musculus [6]) was “Active”. For the same molecule, the Activity (Mus musculus [2]) was “Active”, the Kdiss [3] was 1.97 10^-2/s and the pKd [4] was 5.83. The pEC50 [5] was 9.80 and the Activity (Albumin) was 76.4%.
For SEMAGLUTIDE [listing 2 of 2 here], the Activity (Albumin) was greater than 99%.
For “H-[Aib]EGTFTSDVSSYLEGQAAKEFIAWLVKG[Aun]GVKALIDEILAA-NH2”, the Activity (Mus musculus [7]) was “Active”, the Ka [1] was 7.53 10^3(1/Ms) and the Activity [8] was “Active”. For the same molecule, the Activity (Mus musculus [6]) was “Active”, the Activity (Mus musculus [2]) was “Active” and the Kdiss [3] was 1.1 10^-2/s. It also gave a pKd [4] of 5.84, a pEC50 [5] of 9.68 and an Activity (Albumin) of 89.2%.
In the case of `CC[C@H](C)[C@H](NC(=O)[C@H](Cc1ccccc1)NC(=O)[C@H](CCC(=O)O)NC(=O)[C@H](CCCCN)NC(=O)[C@H](C)NC(=O)[C@H](C)NC(=O)[C@H](CCC(N)=O)NC(=O)CNC(=O)[C@H](CCC(=O)O)NC(=O)[C@H](CC(C)C)NC(=O)[C@H](Cc1ccc(O)cc1)NC(=O)[C@H](CO)NC(=O)[C@H](CO)NC(=O)[C@@H](NC(=O)[C@H](CC(=O)O)NC(=O)[C@H](CO)NC(=O)[C@@H](NC(=O)[C@H](Cc1ccccc1)NC(=O)[C@@H](NC(=O)CNC(=O)[C@H](CCC(=O)O)NC(=O)C(C)(C)N)[C@@H](C)O)[C@@H](C)O)C(C)C)C(=O)N[C@@H](C)C(=O)N[C@@H](Cc1c[nH]c2ccccc12)C(=O)N[C@@H](CC(C)C)C(=O)N[C@H](C(=O)N[C@@H](CCCCN)C(=O)NCC(=O)NCC(=O)N[C@H](C(=O)N[C@@H](CCCCN)C(=O)N[C@@H](C)C(=O)N[C@@H](CC(C)C)C(=O)N[C@H](C(=O)N[C@@H](CC(=O)O)C(=O)N[C@@H](CCC(=O)O)C(=O)N[C@H](C(=O)N[C@@H](CC(C)C)C(=O)N[C@@H](C)C(=O)N[C@@H](C)C(N)=O)[C@@H](C)CC)[C@@H](C)CC)C(C)C)C(C)C` (H-[Aib]EGTFTSDVSSYLEGQAAKEFIAWLVKGGVKALIDEILAA-NH2), the Activity (Mus musculus [7]) was “Active”, the Ka [1] was 2.99 10^3(1/Ms) and the Activity [8] was “Active”. For the same molecule, the Activity (Mus musculus [6]) was “Active”, the Activity (Mus musculus [2]) was “Active” and the Kdiss [3] was 1.12 10^-2/s. It also gave a pKd [4] of 5.43, a pEC50 [5] of 10.19 and an Activity (Albumin) of 86.2%.
